Melting point data for four compounds are collected here from patent US6617326B2 (dated 2003).

For orientation: melting point means the temperature of the solid-liquid transition.

Take `CC(C)(O)c1cnn2c(-c3cccc(-c4ccc(F)cc4C#N)c3)cnc2n1`: the melting point came out at 175 °C.
For `CC(C)(F)c1cnn2c(-c3ccc(F)c(-c4ccc(F)cc4C#N)c3)cnc2n1` the value was 156 to 159 °C.
`CC(C)(O)c1cnn2c(-c3ccc(F)c(-c4ccc(F)cc4C#N)c3)cnc2n1` returned a melting point of 215 °C.
On to `N#Cc1ccc(F)cc1-c1cc(-c2cnc3nc(C(F)(F)F)cnn23)ccc1F`, for which the melting point was in the range of 200 to 201 °C.
